According to patent publication US7531500B2, “Preventing airway mucus production by administration of EGF-R antagonists” (The Regents of the University of California, priority 1998, dated 2009):

Legend:
NCI-H292 cells = assay: Northern analysis for MUC5 gene expression in NCI-H292 cells; type: cell-based, human; conditions: EGF or TGFα 25 ng/ml, TNFα 20 ng/ml; 12 h, 24 h
Experimental: Cell culture. A human pulmonary mucoepidermoid carcinoma cell line, NCI-H292 cells, were grown in RPMI11640 medium containing 10% fetal bovine serum, penicillin (100 U/ml), streptomycin (100 μg/ml) at 37° C. in a humidified 5% CO2 water-jacketed incubator. […] In inhibition studies with an EGF-R tyrosine kinase inhibitor, BIBX1522 (10 μg/ml, generously provided by Boehringer Ingelheim Inc., Ingelheim, Germany), cells were pretreated with BIBX1522 30 min before adding growth factors. After incubation, cells grown in a T-75 flask were used for total RNA extraction or protein extraction, and 8-chamber slides were used for Alcian blue/PAS-staining to visualize mucins.

pathogen-free rats = assay: Goblet cell production in pathogen-free rats after tracheal instillation of TNFα and EGF-R ligands; type: in vivo, rat
Experimental: Healthy rats. Rats were anesthetized with methohexital sodium (Brevital sodium, 50 mg/kg, i.p.; Eli Lilly & Co., Indianapolis, Ind.) and allowed to breathe spontaneously. […] In each study, sterile PBS (100 μl) was instilled into the trachea as control. […] Rats were pretreated with BIBX1522 (3, 10 or 30 mg/kg, i.p.), 1 h before and 24 h after instillation of TGFα. The trachea and lungs were removed for examination 48 h after the instillation of TGFα.
Tissue preparation. At preselected times during anesthesia, the systemic circulation was perfused with 1% paraformaldehyde in DEPC-treated PBS at a pressure of 120 mmHg. The trachea was then removed and placed in 4% paraformaldehyde for 24 h. After fixation, trachea and lungs were embedded in either JB-4 plus monomer solution A for cell analysis or O.C.T. compound (Sakura Finetek U.S.A., Inc., Torrance, Calif.) for immunohistochemistry and in situ hybridization. The embedded tissues were cut as cross sections ([…] thick) and placed on slides.
Cell analysis. We counted the total number of epithelial cells by counting epithelial cell nuclei over 2 mm of the basal lamina with an oil immersion objective lens (×1000 magnification). The linear length of the basal lamina under each analyzed region of epithelium was determined by tracing the contour of the digitized image of the basal lamina. After instillation of stimuli, “developing” goblet cells form. These cells have Alcian blue/PAS-positive granules, but the size of granules is small, and the number of cytoplasmic granules is few. We call these “developing” goblet cells “pre-goblet cells”, a stage before cells become mature goblet cells. Goblet cells are tall, cuboidal, goblet to low columnar in shape, with abundant Alcian blue/PAS-stained granules filling most of the cytoplasm between the nucleus and the luminal surface. Pre-goblet cells are defined as cells with smaller mucus-stained areas (<1/3 height in epithelium from basement membrane to luminal surface) or with sparsely and lightly Alcian blue/PAS-stained, small granules. Ciliated cells are recognized by their ciliated borders, lightly stained cytoplasm, and large round nuclei. Non-granulated secretory cells are columnar in shape and extend from the lumen to the basal lamina. The cytoplasm stains light pink color, and a few tiny PAS-positive and Alcian blue-negative granules are observed in the cytoplasm. Basal cells are small flattened cells with a large nucleus, located just above the basal lamina but not reaching the airway lumen.
Quantification of goblet cell production. Goblet cell production, was determined by the volume density of Alcian blue/PAS-stained mucosubstances on the mucosal surface epithelium using a semi-automatic imaging system described elsewhere (Weber et al. (1984) Science 224:294-297). We measured the Alcian blue/PAS-positive stained area and the total epithelial area and expressed the data as the percentage of the total area stained by Alcian blue-PAS. The analysis was performed with the public domain NIH Image program (developed at the U.S. National Institute of Health and available from the Internet by anonymous FTP from zippy.nimh.gov or on floppy disk from the National Technical Information Service, Springfield, Va., part number PB95-500195GEI).
Immunohistochemical localization of EGF-R in rat epithelium. The localization of EGF-R was examined using immunchistochemical staining with an antibody to EGF-R (Calbiochem, San Diego, Calif.) in frozen sections of rat trachea. After perfusion with 1% paraformaldehyde in PBS, tissues were placed in 4% paraformaldehyde in PBS for 1 h and then removed in 30% sucrose for cryoprotection overnight. Tracheas were embedded in O.C.T. compound (Sakura Finetek U.S.A., Inc., Torrance, Calif.) and frozen. Frozen sections (5 μm) were cut and placed on glass slides (Superfrost Plus, Fisher Scientific, Pittsburgh, Pa.). Immunostaining was performed similarly to the in vitro studies.

EGFR = EGFR (Homo sapiens, UniProt P00533); assay: Immunoblotting for activated EGFR in NCI-H292 cells; type: cell-based; set-up: NCI-H292 cells expressed EGSR mRNA constitutively; endogenous in cells; host or cells: NCI-H292 (human pulmonary mucoepidermoid carcinoma); conditions: stimulated 15 minutes
Experimental: Cells were serum-starved for 24 hours and then stimulated with cigarette smoke solution or with TGFα for 15 minutes. After stimulation, cells were lysed with lysis buffer (20 mM sodium phosphate, pH 7.8, 150 mM NaCl, 5 mM EDTA, 50 mM HEPES, 1% Triton-X100, 50 mM NaF, 1 mM sodium orthovanadate, 5 mM PMSF, and 10 μg/ml each of leupeptin and aprotinin) and incubated for 30 minutes at 4° C. To remove insoluble materials, cell lysates were centrifuged at 14,000 rpm for 5 minutes at 4° C. Aliquots of supernatants containing equal amounts of protein were suspended in SDS sample buffer and boiled for 5 minutes. Proteins were separated by SDS-PAGE in 4-15% acrylamide gel. The resulting gel was equilibrated in the transfer buffer: 25 mM Tris-HCl, 192 mM glycine, 20% (vol/vol) methanol, pH 8.3. The proteins were then transferred electrophoretically to nitrocellulose membranes, which were incubated with 5% fat-free skimmed milk in PBS containing 0.05% Tween 20 for 1 hour and then incubated with anti-phospho-specific EGFR mAb (2 μg/ml, Calbiochem) overnight. Bound Ab was visualized according to a standard protocol for the avidin-biotin-alkaline phosphatase complex method (ABC kit, Vector Laboratories, Burlingame, Calif.).

Q: “TGFα: transforming growth factor alpha, EGF-R ligand (recombinant human; rat synthetic in vivo)” was tested. Which “MUC5 gene expression on incubation with mediator” value (NCI-H292 cells) did it give?
A: The value was “clearly expressed at 24 h”.

Q: What about the “Goblet cells in tracheal epithelium” value (pathogen-free rats; TGFα 250 ng alone or 24 h after TNFα 200 ng, i.t., 48 h later, counted over 2 mm basal lamina, mean ± SEM, 5 rats) of the same substance?
A: The value was 5.8 ± 1.2.

Q: What about the “% of AB/PAS-stained area” value (pathogen-free rats; as E9) of the same substance?
A: The value was 6.8 ± 1.9%.

Q: What about the “Basal cells in tracheal epithelium” value (pathogen-free rats; as E9) of the same substance?
A: The value was 56.8 ± 2.3.

Q: And the “Ciliated cells in tracheal epithelium” value (pathogen-free rats; as E9)?
A: Its value is 54.6 ± 2.3.

Q: And the “Indeterminate cells in tracheal epithelium” value (pathogen-free rats; as E9)?
A: The value was 2.0 ± 0.4.

Q: What about the “Pre-goblet cells in tracheal epithelium” value (pathogen-free rats; as E9) of the same substance?
A: Its value is 12.8 ± 1.6.

Q: And the “Secretory cells in tracheal epithelium” value (pathogen-free rats; as E9)?
A: Its value is 72.2 ± 4.0.

Q: What about the “Total cells in tracheal epithelium” value (pathogen-free rats; as E9) of the same substance?
A: Its value is 204.2 ± 3.3.

Q: What about the EGFR-specific tyrosine phosphorylation (EGFR) of the same substance?
A: The EGFR-specific tyrosine phosphorylation was “increased”.
